# Data: patent US12565522B2, “Micropeptide HMMW and application thereof” (NANJING ANJI BIOTECHNOLOGY CO., LTD., priority 2019, dated 2026)
# Key:
# Type in all cases: cell-based, human
# [1] = test system: A431 cells of skin cancer; assay: cells; settings: Homo sapiens, A-431, dose 10 μg/ml, 48 h, positive control, read-out: proliferation inhibition rate
# Protocol: (§1) After SCC4 cells of head and neck cancer, SW579 cells of thyroid cancer, A549 cells of lung cancer, TE13 cells of esophageal squamous cell carcinoma, MGC803 cells of stomach cancer, MDA-MB-231 cells of breast cancer, UOK262 cells of kidney cancer and A431 cells of skin cancer of human were cultured in a 37 DEG C. 5% CO2 incubator until the density was 90%, they were digested and collected by trypsin, the cells were re-suspended in a culture solution and counted under a microscope, the concentration of the cells was adjusted to 3.0×10^4 cells/mL, and the cell suspension was inoculated to 96-well plates, 100 μL per well, and cultured in a 37 DEG C. 5% CO2 incubator overnight. After the cells were completely adherent, different doses of micropeptides HMMW I to IX were added as drug groups, taxol was used as a positive control group, and the culture solution without any drug was used as a blank control group. They were diluted with the culture solution till predetermined concentrations. The diluted solutions were added to 96-well plates, respectively, 100 μL per well, and incubated in a 37 DEG C. 5% CO2 incubator for 48 h. 20 μL of 5 mg/mL MTT was added to each well of the 96-well plates, and the culture was continued for 4 h. The culture medium was sucked away, and 100 μL of DMSO was added to each well for dissolution. Absorbance was detected by ELIASA at detection wavelength 570 nm and reference wavelength 630 nm, and proliferation inhibition (PI) was calculated according to Formula PI (%)=1−drug group/negative group. The test was independently repeated three times. The results obtained from the test were expressed with mean±SD and statistical t test was done. *P<0.05 means significant difference, and **P<0.01 means very significant difference.
# [2] = test system: A549 cells of lung cancer; assay: cells; settings: Homo sapiens, dose 10 μg/ml, 48 h, positive control, read-out: proliferation inhibition rate
# Protocol: as §1
# [3] = test system: SCC4 cells of head and neck cancer; assay: cells; settings: Homo sapiens, SCC-4, dose 10 μg/ml, 48 h, positive control, read-out: proliferation inhibition rate
# Protocol: as §1
# [4] = test system: UOK262 cells of kidney cancer; assay: cells; settings: Homo sapiens, UOK 262, dose 10 μg/ml, 48 h, positive control, read-out: proliferation inhibition rate
# Protocol: as §1
# [5] = test system: SW579 cells of thyroid cancer; assay: cells; settings: Homo sapiens, dose 10 μg/ml, 48 h, positive control, read-out: proliferation inhibition rate
# Protocol: as §1
# [6] = test system: MGC803 cells of stomach cancer; assay: cells; settings: Homo sapiens, MGC-803, dose 10 μg/ml, 48 h, positive control, read-out: proliferation inhibition rate
# Protocol: as §1
# [7] = test system: TE13 cells of esophageal squamous cell carcinoma; assay: cells; settings: Homo sapiens, dose 10 μg/ml, 48 h, positive control, read-out: proliferation inhibition rate
# Protocol: as §1
# [8] = test system: MDA-MB-231 cells of breast cancer; assay: cells; settings: Homo sapiens, dose 10 μg/ml, 48 h, positive control, read-out: proliferation inhibition rate
# Protocol: as §1
# [9] = test system: A431 cells of skin cancer; assay: transwell migration test; settings: dose 10 (μM), 24 h
# Protocol: (§2) Inoculate SCC4 cells of head and neck cancer, SW579 cells of thyroid cancer, A549 cells of lung cancer, TE13 cells of esophageal squamous cell carcinoma, MGC803 cells of stomach cancer, MDA-MB-231 cells of breast cancer, UOK262 cells of kidney cancer, and A431 cells of skin cancer of human to transwell cells, 100 μL per well, and meanwhile add micropeptides HMMW I to IX at different doses to every cell. Add 0.6 mL of complete medium containing 10% FBS to the transwell cells to stimulate cell migration, and culture in 5% CO2 at 37 DEG C. for 24 h. Discard the medium in the wells, fix with 90% alcohol at room temperature for 30 min, stain with 0.1% crystal violet at room temperature for 10 min, rinse with clear water, gently wipe off the non-migrated cells in the upper layer with a cotton swab, observe under a microscope and select four fields of view to take pictures and count. Calculate the migration inhibition rate (MIR) of the cells according to the following formula: […]
# (§3) The test was repeated independently three times. Mean±SD was calculated based on the test results. Statistical t test was done. Here, “the test was repeated independently three times” means that every dose of any type of cells was tested repeatedly three times, and then the above formula was used to calculate the number of migrated cells (Mean±SD). Value P was used to express statistical difference. The statistical significance of the results is a method for estimating how true the results are (the totality can be represented), *P<0.05 means significant difference, and **P<0.01 means very significant difference.
# [10] = test system: A549 cells of lung cancer; assay: transwell migration test; settings: dose 10 (μM), 24 h
# Protocol: as §2, §3
# [11] = test system: SCC4 cells of head and neck cancer; assay: transwell migration test; settings: dose 10 (μM), 24 h
# Protocol: as §2, §3
# [12] = test system: UOK262 cells of kidney cancer; assay: transwell migration test; settings: dose 10 (μM), 24 h
# Protocol: as §2, §3
# [13] = test system: SW579 cells of thyroid cancer; assay: transwell migration test; settings: dose 10 (μM), 24 h
# Protocol: as §2, §3
# [14] = test system: MGC803 cells of stomach cancer; assay: transwell migration test; settings: 24 h
# Protocol: as §2, §3
# [15] = test system: TE13 cells of esophageal squamous cell carcinoma; assay: transwell migration test; settings: dose 10 (μM), 24 h
# Protocol: as §2, §3
# [16] = test system: MDA-MB-231 cells of breast cancer; assay: transwell migration test; settings: dose 10 (μM), 24 h
# Protocol: as §2, §3
# [17] = test system: A431 cells of skin cancer; assay: Matrigel transwell invasion test; settings: dose 10 (unit not given), 24 h
# Protocol: (§4) Dilute 10 mg/mL Matrigel with culture medium at 1:3, spread it on membranes of transwell cells and dry it in the air at room temperature. Use trypsin to digest and collect SCC4 cells of head and neck cancer, SW579 cells of thyroid cancer, A549 cells of lung cancer, TE13 cells of esophageal squamous cell carcinoma, MGC803 cells of stomach cancer, MDA-MB-231 cells of breast cancer, UOK262 cells of kidney cancer, and A431 cells of skin cancer of human, which were cultured to the logarithmic phase, wash with PBS twice and re-suspend with a blank culture medium. Adjust cell concentration to 1×10^5 cells/mL. Inoculate the cells to transwell cells, 100 μL per well, and meanwhile add micropeptides HMMW I to IX at different doses to every cell. Add 0.6 mL of complete medium containing 10% FBS to the transwell cells to stimulate cell invasion, and culture in 5% CO2 at 37 DEG C. for 24 h. Discard the medium in the wells, fix with 90% alcohol at room temperature for 30 min, stain with 0.1% crystal violet at room temperature for 10 min, rinse with clear water, gently wipe off the non-invaded cells in the upper layer with a cotton swab, observe under a microscope and select four fields of view to take pictures and count. Calculate the invasion inhibition rate (IIR) of the cells according to the following formula:
# (§5) [formula] where Ntest is the number of invaded cells in the test groups (the groups at a dose of 1, 4 or 16 μM in the table), Ncontrol is the number of invaded cells in the blank control groups (the groups at a dose of 0 μM in the table). The test was repeated independently three times. Mean±SD was calculated based on the test results. Statistical t test was done. Value P was used to express statistical difference. The statistical significance of the results is a method for estimating how true the results are (the totality can be represented), *P<0.05 means significant difference, and **P<0.01 means very significant difference.
# [18] = test system: A549 cells of lung cancer; assay: Matrigel transwell invasion test; settings: dose 10 (unit not given), 24 h
# Protocol: as §4, §5
# [19] = test system: SCC4 cells of head and neck cancer; assay: Matrigel transwell invasion test; settings: dose 10 (unit not given), 24 h
# Protocol: as §4, §5
# [20] = test system: UOK262 cells of kidney cancer; assay: Matrigel transwell invasion test; settings: dose 10 (unit not given), 24 h
# Protocol: as §4, §5
# [21] = test system: SW579 cells of thyroid cancer; assay: Matrigel transwell invasion test; settings: dose 10 (unit not given), 24 h
# Protocol: as §4, §5
# [22] = test system: MGC803 cells of stomach cancer; assay: Matrigel transwell invasion test; settings: dose 10 (unit not given), 24 h
# Protocol: as §4, §5
# [23] = test system: TE13 cells of esophageal squamous cell carcinoma; assay: Matrigel transwell invasion test; settings: dose 10 (unit not given), 24 h
# Protocol: as §4, §5
# [24] = test system: MDA-MB-231 cells of breast cancer; assay: Matrigel transwell invasion test; settings: dose 10 (unit not given), 24 h
# Protocol: as §4, §5
molecule,measurement,setting,value
"CC(=O)O[C@H]1C(=O)[C@@]2(C)[C@H]([C@H](OC(=O)c3ccccc3)[C@]3(O)C[C@H](OC(=O)[C@H](O)[C@@H](NC(=O)c4ccccc4)c4ccccc4)C(C)=C1C3(C)C)[C@]1(OC(C)=O)CO[C@@H]1C[C@@H]2O [Taxol, taxol, reference compound]",inhibition at 10 µg/mL,[1],85.2%
same,inhibition at 10 µg/mL,[2],84.3%
same,inhibition at 10 µg/mL,[3],87%
same,inhibition at 10 µg/mL,[4],83.9%
same,inhibition at 10 µg/mL,[5],82.8%
same,inhibition at 10 µg/mL,[6],81.3%
same,inhibition at 10 µg/mL,[7],79.2%
same,inhibition at 10 µg/mL,[8],83.9%
Avastin: comparison group in the migration and invasion tables; not described in the text [reference compound],migration inhibition rate,[9],64.63%
same,migration inhibition rate,[10],66.21%
same,migration inhibition rate,[11],68.64%
same,migration inhibition rate,[12],61.39%
same,migration inhibition rate,[13],59.81%
same,migration inhibition rate,[14],71.25%
same,migration inhibition rate,[15],58.19%
same,migration inhibition rate,[16],62.19%
same,invasion inhibition rate,[17],70.39%
same,invasion inhibition rate,[18],61.35%
same,invasion inhibition rate,[19],68.41%
same,invasion inhibition rate,[20],72.16%
same,invasion inhibition rate,[21],67.40%
same,invasion inhibition rate,[22],63.48%
same,invasion inhibition rate,[23],69.31%
same,invasion inhibition rate,[24],70.03%
